Consider two compounds from patent US6783769B1, “Transdermal therapeutic system TTS containing tolterodine” (Schwarz Pharma AG, priority 1999, dated 2004).

Data set [1] is described as follows: Rate of dermal penetration, deuterated versus non-deuterated tolterodine (general statement). Particulars: compared with non-deuterated tolterodine. The format is in vitro ADME.
The conditions of data set [2]: oral application, cited from earlier work.

SMILES strings stand for the structures. Like-named read-outs stand apart in the source and are kept apart here.

For the compound `[2H]C([2H])([2H])c1ccc(O)c(C(CCN(C(C)C)C(C)C)c2ccccc2)c1` (stereo not drawn) [deuterated tolterodine, 2-(3-diisopropylamino-1-phenylpropyl)-4-[^2H3]methyl-phenol], in data set [1], the “rate of dermal penetration” value is given as “considerably increased”.

As to `Cc1ccc(O)c(C(CCN(C(C)C)C(C)C)c2ccccc2)c1` (stereo not drawn) [tolterodine, N,N-diisopropyl-3-(2-hydroxy-5-methylphenyl)-3-phenylpropylamine], the absolute bioavailability in data set [2] (rapid metabolisers) was 17%; in data set [2] (slow metabolisers) it was 65%.
